Results as given in ChEMBL document CHEMBL2375211, “2-methoxyjuglone induces apoptosis in HepG2 human hepatocellular carcinoma cells and exhibits in vivo antitumor activity in a H22 mouse hepatocellular carcinoma model” (J Nat Prod, 2013).
Calls of active or inactive are those of the source. The calls are words filed in the database; no cut-off is given here.

What was measured:
HepG2 [1] = test: Induction of apoptosis in human HepG2 cells assessed as PARP cleavage at 1.6 to 4.8 ug/mL after 24 hrs by Western blot analysis; assay type: functional, cell-based
HepG2 [2] = test: Cell cycle arrest in human HepG2 cells assessed as accumulation at S phase at 6.4 ug/mL after 24 hrs by propidium iodide staining-based flow cytometric analysis (reference value: 46%); assay type: functional
HepG2 [3] = test: Cell cycle arrest in human HepG2 cells assessed as accumulation at S phase at 8 ug/mL after 48 hrs by propidium iodide staining-based flow cytometric analysis (reference value: 31%); assay type: functional
HepG2 [4] = test: Cytotoxicity against human HepG2 cells assessed as decrease in cell viability after 24 to 72 hrs by MTT assay; assay type: functional, cell-based
HepG2 [5] = test: Cell cycle arrest in human HepG2 cells assessed as accumulation at sub-G1 phase at 6.4 ug/mL after 48 hrs by propidium iodide staining-based flow cytometric analysis (reference value: 3%); assay type: functional
HepG2 [6] = test: Cell cycle arrest in human HepG2 cells assessed as accumulation at sub-G1 phase at 4.8 ug/mL after 48 hrs by propidium iodide staining-based flow cytometric analysis (reference value: 3%); assay type: functional
HepG2 [7] = test: Cytotoxicity against human HepG2 cells assessed as decrease in cell viability at 1.6 to 8 ug/mL by MTT assay; assay type: functional, cell-based; settings: TDE = time-dependent effect
HepG2 [8] = test: Cell cycle arrest in human HepG2 cells assessed as accumulation at sub-G1 phase at 1.6 ug/mL after 24 hrs by propidium iodide staining-based flow cytometric analysis (reference value: 4%); assay type: functional
H22 [9] = test: Antitumor activity against mouse H22 cells allografted in Kunming mouse assessed as decrease in weight of tumor mass at 0.5 mg/kg/day, ip administered 8 days measured after 10 days relative to control; assay type: functional; set-up: scale not given: the % may be the effect or the level left; settings: route intraperitoneal
HepG2 [10] = test: Induction of apoptosis in human HepG2 cells assessed as increase in Bax level after 24 hrs by Western blot analysis; assay type: functional, cell-based
HepG2 [11] = test: Cell cycle arrest in human HepG2 cells assessed as accumulation at sub-G1 phase at 6.4 ug/mL after 24 hrs by propidium iodide staining-based flow cytometric analysis (reference value: 4%); assay type: functional
HepG2 [12] = test: Induction of apoptosis in human HepG2 cells assessed as appearance of cell shrinkage at 4.8 to 8 ug/mL after 24 hrs by inverted microscopic analysis relative to control; assay type: functional, cell-based
HepG2 [13] = test: Cell cycle arrest in human HepG2 cells assessed as accumulation at G1 phase at 3.2 ug/mL after 24 hrs by propidium iodide staining-based flow cytometric analysis (reference value: 45%); assay type: functional
HepG2 [14] = test: Induction of apoptosis in human HepG2 cells assessed as appearance of membrane blebbing at 4.8 to 8 ug/mL after 24 hrs by inverted microscopic analysis relative to control; assay type: functional, cell-based
HepG2 [15] = test: Cell cycle arrest in human HepG2 cells assessed as accumulation at G1 phase at 3.2 ug/mL after 48 hrs by propidium iodide staining-based flow cytometric analysis (reference value: 64%); assay type: functional
HepG2 [16] = test: Cell cycle arrest in human HepG2 cells assessed as accumulation at sub-G1 phase at 1.6 ug/mL after 48 hrs by propidium iodide staining-based flow cytometric analysis (reference value: 3%); assay type: functional
HepG2 [17] = test: Induction of apoptosis in human HepG2 cells assessed as nuclear condensation at 4.8 ug/mL after 24 hrs by acridine orange/ethidium bromide staining-based fluorescence microscopic analysis; assay type: functional, cell-based
HepG2 [18] = test: Cell cycle arrest in human HepG2 cells assessed as accumulation at S phase at 3.2 ug/mL after 48 hrs by propidium iodide staining-based flow cytometric analysis (reference value: 31%); assay type: functional
HepG2 [19] = test: Cell cycle arrest in human HepG2 cells assessed as accumulation at S phase at 4.8 ug/mL after 24 hrs by propidium iodide staining-based flow cytometric analysis (reference value: 46%); assay type: functional
H22 [20] = test: Antitumor activity against mouse H22 cells allografted in Kunming mouse assessed as decrease in weight of tumor mass at 1 mg/kg/day, ip administered 8 days measured after 10 days relative to control; assay type: functional; set-up: scale not given: the % may be the effect or the level left; settings: route intraperitoneal
HepG2 [21] = test: Cell cycle arrest in human HepG2 cells assessed as accumulation at sub-G1 phase at 3.2 ug/mL after 24 hrs by propidium iodide staining-based flow cytometric analysis (reference value: 4%); assay type: functional
HepG2 [22] = test: Cell cycle arrest in human HepG2 cells assessed as accumulation at G1 phase at 8 ug/mL after 48 hrs by propidium iodide staining-based flow cytometric analysis (reference value: 64%); assay type: functional
HepG2 [23] = test: Induction of apoptosis in human HepG2 cells assessed as mitochondrial cytochrome c-dependent caspase-3 activation at 1.6 to 4.8 ug/mL after 24 hrs by Western blot analysis; assay type: functional, cell-based
HepG2 [24] = test: Cell cycle arrest in human HepG2 cells assessed as accumulation at G1 phase at 4.8 ug/mL after 24 hrs by propidium iodide staining-based flow cytometric analysis (reference value: 45%); assay type: functional
HepG2 [25] = test: Cell cycle arrest in human HepG2 cells assessed as accumulation at G1 phase at 6.4 ug/mL after 24 hrs by propidium iodide staining-based flow cytometric analysis (reference value: 45%); assay type: functional
HepG2 [26] = test: Induction of apoptosis in human HepG2 cells assessed as mitochondrial cytochrome c-dependent caspase-9 activation at 1.6 to 4.8 ug/mL after 24 hrs by Western blot analysis; assay type: functional, cell-based
HepG2 [27] = test: Cell cycle arrest in human HepG2 cells assessed as accumulation at G2/M phase at 4.8 ug/mL after 48 hrs by propidium iodide staining-based flow cytometric analysis (reference value: 5%); assay type: functional
HepG2 [28] = test: Cell cycle arrest in human HepG2 cells assessed as accumulation at sub-G1 phase at 3.2 ug/mL after 48 hrs by propidium iodide staining-based flow cytometric analysis (reference value: 3%); assay type: functional
HepG2 [29] = test: Cell cycle arrest in human HepG2 cells assessed as accumulation at G2/M phase at 8 ug/mL after 48 hrs by propidium iodide staining-based flow cytometric analysis (reference value: 5%); assay type: functional
HepG2 [30] = test: Cell cycle arrest in human HepG2 cells assessed as accumulation at G2/M phase at 3.2 ug/mL after 24 hrs by propidium iodide staining-based flow cytometric analysis (reference value: 9%); assay type: functional
Mus musculus = test: Toxicity in Kunming mouse allografted with mouse H22 cells assessed as decrease in body weight at 0.25 to 1 mg/kg/day, ip measured every day for 8 days; assay type: organism-based; set-up: route intraperitoneal; settings: in vivo, 192 h

## COC1=CC(=O)c2c(O)cccc2C1=O
HepG2 [1]
  Activity: Active
HepG2 [2]
  Activity: 61%
HepG2 [3]
  Activity: 46%
HepG2 [4]
  Activity: Dose-dependent effect
HepG2 [5]
  Activity: 18%
HepG2 [6]
  Activity: 6%
HepG2 [7]
  Activity: tde
HepG2 [8]
  Activity: 5%
H22 [9]
  Activity: 56%
HepG2 [10]
  Activity: Dose-dependent effect
HepG2 [11]
  Activity: 6%
HepG2 [12]
  Activity: Active
HepG2 [13]
  Activity: 34%
HepG2 [14]
  Activity: Active
HepG2 [15]
  Activity: 35%
HepG2 [16]
  Activity: 6%
HepG2 [17]
  Activity: Active
HepG2 [18]
  Activity: 64%
HepG2 [19]
  Activity: 62%
H22 [20]
  Activity: 67%
HepG2 [21]
  Activity: 2%
HepG2 [22]
  Activity: 54%
HepG2 [23]
  Activity: Active
HepG2 [24]
  Activity: 38%
HepG2 [25]
  Activity: 37%
HepG2 [26]
  Activity: Active
HepG2 [27]
  Activity: 2%
HepG2 [28]
  Activity: 4%
HepG2 [29]
  Activity: 0%
HepG2 [30]
  Activity: 2%
Mus musculus
  Activity: Non-toxic
